Measured values taken from publication PMC10537087, “Evaluating Known Zika Virus NS2B-NS3 Protease Inhibitor Scaffolds via In Silico Screening and Biochemical Assays” (Pharmaceuticals, 2023).
Like-named read-outs stand apart in the source and are kept apart here.

Key:
[1] = Cytotoxicity MTT assay (CC50); settings: African green monkey, Vero (ATCC CCL-81) cells
Procedure: (§1) The Vero (ATCC® CCL-81™) cell line was used for the cytotoxicity assays and antiviral activity evaluation against ZIKV. Cells were cultured in Eagle’s minimum essential media (MEM) (Cultilab, Campinas, Brazil). The media was supplemented with 5% fetal bovine serum (FBS) (Cultilab, Brazil), in addition to 100 IU/mL penicillin (Cellofarm, Rio De Janeiro, Brazil), 100 μg/mL streptomycin (Merck, Darmstadt, Germany), and 0.25 μg/mL amphotericin B (Cultilab, Brazil).
(§2) Cells were seeded in 96-well microplates (4.0 × 10^4 cells per well) and incubated at 37 °C and 5% CO2 for 24 h. Then, 200 µL of MEM with 1% FBS containing a serial dilution of the compounds (100 to 12.5 µM) was added. As vehicle control, a serial dilution of DMSO was used. After 72 h of incubation under the same conditions, 100 μL of 3-(4,5-dimethylthiazol-2-yl)-2,5-diphenyltetrazolium bromide (MTT; ThermoFischer Scientific, Waltham, MA, USA) [76] diluted in MEM (0.5 mg/mL) was added to each well and incubated for 3 h. The media was removed, and 100 μL of DMSO was added to each well to solubilize formazan crystals and shaken for 20 min. The absorbance was read at 570 nm using a spectrophotometer (VersaMax, Molecular Devices, San Jose, CA, USA). The percentages of inhibition of cell viability were calculated as the ratio between the absorbance of the compound-treated cells and cells with only the vehicle. […] Linear regression (LR) was used for the analysis, considering results with r^2 > 0.9. All conditions were tested in triplicate and one independent assay (n = 3 data points).

[2] = system: Vero (ATCC CCL-81) cell line; assay: Cytotoxicity MTT assay (CC50); settings: Vero cells
Procedure: as §1, §2

[3] = target: T1, ZIKV NS2B-NS3pro (Zika virus, UniProt A0A024B7W1, C1582S/C1645S/R1467A/R1531G); assay: ZIKV NS2B-NS3pro inhibitory assay with fluorogenic substrate Bz-Nle-Lys-Lys-Arg-AMC; type: biochemical; settings: for % ZIKV NS2B/NS3pro Inhibition [Enzyme] = 0.2 nM / % ZIKV NS2B/NS3pro Inhibition [Enzyme] = 2 nM: CHAPS 1 mM; for % ZIKV NS2B/NS3pro Inhibition (100 µM) 0.001% Triton: 0.001% Triton X-100, no Tween-20; for % ZIKV NS2B/NS3pro Inhibition (100 µM) 0.01% Triton: 0.01% Triton X-100, no Tween-20; for % ZIKV NS2B/NS3pro Inhibition (100 µM) BSA: 10 min pre-incubation with BSA 1 mg/mL before enzyme; for % ZIKV NS2B/NS3pro Inhibition (100 µM) Without Preincubation: no preincubation; for Hill Slope Replica 1 / Hill Slope Replica 2: from dose-response curve
[4] = system: Vero (ATCC CCL-81) cell line; design: method as in Serafim et al. [64]; settings: comparison control; ref Serafim et al. [64]; cited from earlier work
[5] = system: ZIKV (PE243); design: method as in Serafim et al. [64]; settings: comparison control, ref Serafim et al. [64]; cited from earlier work
[6] = target: T1, ZIKV NS2B-NS3pro; settings: cited from earlier work
[7] = target: cruzain (Trypanosoma cruzi, UniProt P25779); assay: Cruzain counter-screening enzyme assay (Z-Phe-Arg-AMC); type: biochemical; settings: compound 25 µM; 10 min preincubation; pH 5.5
Procedure: Cruzain activity was measured by monitoring the fluorescence signal obtained by cleavage of the fluorogenic substrate Z-Phe-Arg-AMC, following a well-established protocol. The fluorescence intensity (excitation λ: 340 nm; emission λ: 440 nm) was monitored for at least 5 min. All assays were performed in sodium acetate 0.1 M at pH 5.5 and β-mercaptoethanol 10 mM. The final protein concentration was 0.1 nM, and the substrate concentration was 2.5 µM. Each condition was tested in triplicate and two independent assays (n = 6 data points), with preincubation of the enzyme for 10 min at 25 °C. Assays were performed at compound concentrations near the IC50 value against ZIKV NS2B-NS3pro.

[8] = compound 100 µM, 10 min preincubation
[9] = compound 100 µM, 10 min preincubation with enzyme, 0.005% Tween-20, enzyme 0.2 nM
[10] = compound 100 µM, 0.005% Tween-20
[11] = compound 25 µM (close to IC50), enzyme 0.2 nM

cruzain, sequence (P25779 123-467): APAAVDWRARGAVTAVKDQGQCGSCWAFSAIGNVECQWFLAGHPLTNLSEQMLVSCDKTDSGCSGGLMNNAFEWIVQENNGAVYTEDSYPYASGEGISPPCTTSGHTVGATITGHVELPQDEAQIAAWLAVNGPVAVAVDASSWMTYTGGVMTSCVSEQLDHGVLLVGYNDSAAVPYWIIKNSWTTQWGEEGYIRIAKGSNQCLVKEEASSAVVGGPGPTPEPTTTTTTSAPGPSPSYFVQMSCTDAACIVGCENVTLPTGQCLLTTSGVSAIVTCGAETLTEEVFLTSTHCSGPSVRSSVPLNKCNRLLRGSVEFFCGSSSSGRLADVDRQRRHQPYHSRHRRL

Row | Structure (SMILES) | CC50 at 72 h [1] [µM] | Cell viability as percentage of cell control (mean absorbance / CELL) ([2]; compound 12.5 µM) | Cell viability as percentage of cell control (mean absorbance / CELL) ([2]; compound 25 µM) | Cell viability as percentage of cell control (mean absorbance / CELL) ([2]; compound 50 µM) | Cell viability as percentage of cell control (mean absorbance / CELL) ([2]; compound 100 µM) | % ZIKV NS2B/NS3pro Inhibition (100 µM) 0.001% Triton [3, 8] [%] | % ZIKV NS2B/NS3pro Inhibition (100 µM) 0.01% Triton [3, 8] [%] | % ZIKV NS2B/NS3pro Inhibition (100 µM) BSA ([3]; compound 100 µM) [%] | % ZIKV NS2B/NS3pro Inhibition (100 µM) With Preincubation [3, 9] [%] | % ZIKV NS2B/NS3pro Inhibition (100 µM) Without Preincubation [3, 10] [%] | Hill Slope Replica 1 [3] | Hill Slope Replica 2 [3] | also measured
1 | COc1cccc2nc(C(=O)c3ccccc3NS(=O)(=O)c3ccc(F)c(C)c3)[nH]c12 [Compound 12] | < 12.5 | 28.1944 | 14.2593 | 9.861 | 10 | 90 ± 5 | 5 ± 7 | 87 ± 18 | 100 ± 0 | 91 ± 9 | 1.517 | 1.742 | IC50 ([3]; 0.005% Tween-20, enzyme 0.2 nM, substrate 44 µM, read-out: ZIKV NS2B/NS3pro IC50): 5 ± 1 µM; % ZIKV NS2B/NS3pro Inhibition [Enzyme] = 0.2 nM ([3]; compound 10 µM (close to IC50), enzyme 0.2 nM): 94 ± 0.06%; % ZIKV NS2B/NS3pro Inhibition [Enzyme] = 2 nM ([3]; compound 10 µM (close to IC50)): 30 ± 10%; IC50 ([3]; one value per independent assay (two curves per compound), read-out: IC50 of the individual curves for NS2B-NS3pro inhibitors (Figure 3)): 6 µM
2 | NC(=O)c1ncn([C@@H]2O[C@H](CO)[C@@H](O)[C@H]2O)n1 [Ribavirin] | – | – | – | – | – | – | – | – | – | – | – | – | CC50 [4]: > 100 µM; EC50 [5]: 4.1 ± 0.35 µM
3 | COc1cccc2sc(NC(=O)c3ccccc3CS(=O)(=O)c3ccccc3)nc12 [Compound 8] | 23.6 ± 1 | 57.338 | 54.3981 | 21.2269 | 17.0602 | – | – | – | – | – | – | – | % ZIKV NS2B/NS3pro Inhibition (100 µM) Without Preincubation ([3]; compound at 10 µM (footnote a), 0.005% Tween-20): 15 ± 11%; % ZIKV NS2B/NS3pro Inhibition (100 µM) With Preincubation ([3]; compound at 10 µM (footnote a, solubility limit), 10 min preincubation, 0.005% Tween-20, enzyme 0.2 nM): 8 ± 8%
4 | COc1ccc(Cl)c2sc(NC(=O)c3ccccc3NS(=O)(=O)c3ccc(C)cc3)nc12 [LEE-3] | – | – | – | – | – | – | – | – | – | – | – | – | cause of inhibition after resynthesis ([6]; parallel study, ref [54]): due to colloidal aggregation; mode of inhibition ([6]; ref [33]): competitive inhibitors
5 | Cc1ccc(S(=O)(=O)Nc2ccccc2C(=O)Nc2nc3ccccc3[nH]2)cc1 [Compound 7] | 32.8 ± 1.55 | 64.4267 | 53.8262 | 38.9416 | 40.3696 | 88 ± 5 | 12 ± 17 | 89 ± 7 | 100 ± 0 | 90 ± 8 | 2.014 | 1.056 | % ZIKV NS2B/NS3pro Inhibition [Enzyme] = 0.2 nM [3, 11]: 87 ± 0.04%; % ZIKV NS2B/NS3pro Inhibition [Enzyme] = 2 nM ([3]; compound 25 µM (close to IC50)): 27 ± 6%
6 | O=C(Nc1nc2cnccc2[nH]1)c1ccccc1NS(=O)(=O)c1ccc(F)cc1 [Compound 3] | 120 ± 3.68 | 86.7535 | 77.5537 | 72.6654 | 56.6548 | – | – | – | – | 56 ± 11 | – | – | –
7 | O=C(Nc1nc2cccnc2[nH]1)c1ccccc1NS(=O)(=O)c1ccc(F)cc1 [Compound 2] | 32.5 ± 1.95 | 77.4987 | 53.4692 | 30.8677 | 25.9519 | 94 ± 7 | 30 ± 19 | 32 ± 2 | 100 ± 0 | 100 ± 0 | 0.731 | 4.089 | % ZIKV NS2B/NS3pro Inhibition [Enzyme] = 0.2 nM [3, 11]: 30 ± 0.1%; % ZIKV NS2B/NS3pro Inhibition [Enzyme] = 2 nM ([3]; compound 25 µM (close to IC50)): 28 ± 7%; inhibition at 25 µM [7]: 42 ± 11%
